Holding throughout (assay): inhibition of tumour cell growth, NCI panel, 48 h
Assay [1] has as its system A498 renal.
Assay [2] deals with CCRF-CEM leukemia.
The test system of assay [3] is HCC-2998 colon.
Assay [4] has as its system HCT-116 colon.
The subject of assay [5] is HOP-62 NSCLC.
Assay [6] deals with MALME-3M melanoma.
In assay [7] the test system is MDA-MB-231 breast.
In assay [8] the test system is OVCAR-3 ovarian.
Assay [9] concerns OVCAR-5 ovarian.
Assay [10] concerns SNB-19 CNS.

Consider eight molecules from PubChem BioAssay (NCI).

Where “and” joins values, the source holds several entries; their conditions need not be identical. Equal values may be shown once.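 96-well plates; 48 h exposure; 5 concentrations. Endpoints by linear interpolation between flanking doses. Not reached: highest tested concentration assigned. At the GI50, growth is halved. TGI denotes the concentration required for complete inhibition of growth.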

As to `COc1ccc(-c2cc(-c3ccc(Cl)cc3)c(C#N)c(=O)n2CCCCCC(=O)Nc2ccccc2N)cc1`, the GI50 in [1] was 1.37 µM; in [2], 4840 nM; in assay [3], 4.02 µM; in [4] it was 3800 nM; in [5], 3.49 µM; in [6], 3.19 µM. The GI50 in assay [7] was 7.12 µM; in [8], 5000 nM; in [9], 10.9 µM; in assay [10], 23.1 µM. Besides, the TGI in assay [1] is 19.2 µM; in assay [2], greater than 100 µM; in assay [3], 36.5 µM; in assay [4], greater than 100 µM; in assay [5], 52.1 µM; in [6], 20.3 µM. For the same molecule, the TGI in [7] is greater than 100 µM; in [8] it was 25.3 µM; in assay [9] it was greater than 100 µM; in assay [10] it was greater than 100 µM.
For `O=C(N=Nc1c(O)[nH]c2c(Cl)cc(Cl)cc12)C(=O)Nc1cccc(C(F)(F)F)c1`, the TGI in [1], in assay [2], in [3], in assay [4], in assay [5] and in assay [6] was greater than 100 µM each time. Besides, the TGI in assay [7], in assay [8], in [9] and in assay [10] was greater than 100 µM in each case.
For `CCN(CC)CCN1C(=O)c2cccc3cc(N)cc(c23)C1=O`, the TGI is 57.5 µM in [1]; greater than 100 µM in [2]; 21.7 µM in assay [3]; 38.5 µM in assay [4]; 40.3 µM in assay [5]; 26.1 µM in [6]. The TGI in assay [7] was 51.9 µM; in assay [8], 44.3 µM; in assay [9], 15.7 µM; in [10], greater than 100 µM.
Take `COc1cc(F)c(F)c(F)c1C(=O)c1cnc(NC2CCN(S(C)(=O)=O)CC2)nc1N`: the GI50 in assay [1] was 1.28 µM; in assay [2], 1210 nM; in assay [3], 2.87 µM; in assay [4], 560 nM; in [5], 2.11 µM; in assay [6], 3.95 µM. Also, the GI50 was 1.26 µM in assay [7], 2330 nM in assay [8], 1.45 µM in assay [9] and 1.39 µM in assay [10]. The TGI in assay [1] is 6.69 µM; in assay [2] it was greater than 25 µM; in assay [3], greater than 21.6 µM; in assay [4] it was greater than 25 µM; in assay [5] it was 16.2 µM; in assay [6], 11.3 µM. Further, the TGI in assay [7] was 16 µM; in assay [8] it was greater than 19 µM; in [9], greater than 25 µM; in assay [10] it was greater than 25 µM.
For the molecule `CCCCCCCCCCCCNC(=O)N[C@H](C(=O)N[C@H]1/C=C/OCCNC(=O)/C=C/[C@H](C(C)C)NC1=O)C(C)C`, the GI50 in assay [1] is 7.81 µM; in assay [2], 2160 nM; in assay [3], 12.9 µM; in [4] it was 1670 nM; in assay [5], 8.5 µM; in assay [6], 39.3 µM. Besides, the GI50 in assay [7] is 11.7 µM; in assay [8] it was 568 nM; in assay [9], 6.82 µM; in assay [10] it was 4.3 µM. The TGI in assay [1] was 57 µM; in [2], greater than 100 µM; in assay [3] it was greater than 60.1 µM; in [4] it was 21.7 µM; in assay [5], 34 µM; in assay [6], greater than 100 µM. For the same molecule, the TGI was 49.3 µM in assay [7], greater than 78.7 µM in [8], greater than 92.7 µM in assay [9] and greater than 100 µM in [10].
`O=C1Nc2ccc(I)cc2/C1=C/c1cc(Br)c(O)c(Br)c1`: the GI50 in [1] was > 16.3 µM and 20.3 µM; in [2], > 18500 nM and 6240 nM; in assay [3] it was 24.5 µM and 16.3 µM; in [4] it was > 17200 nM and 15200 nM; in assay [5], > 25 µM and 21.9 µM; in assay [6] it was 5.9 µM and 4.62 µM. For the same molecule, the GI50 in [7] is > 20.4 µM and 16.1 µM; in assay [8] it was > 12500 nM and 16700 nM; in assay [9] it was > 25 µM and 21.5 µM; in assay [10] it was > 21.6 µM and 31.1 µM. In addition, the TGI was > 25 µM and 41.9 µM in assay [1]; > 25 µM and 51.3 µM in [2]; > 25 µM and 33.6 µM in assay [3]; > 25 µM and 32.8 µM in [4]; > 25 µM and 46.9 µM in assay [5]; 22.2 µM and > 64.5 µM in assay [6]. The TGI in assay [7] was > 25 µM and 44.2 µM; in assay [8], > 20.6 µM and 36.9 µM; in assay [9] it was > 25 µM and 51.7 µM; in assay [10], greater than 94.3 µM.
With `COc1cnc2c(c1)C(=O)c1c-2n(CCCN2CCNCC2)c(=O)c2cc(F)ccc12`, the GI50 in assay [1] is 0.352 µM; in assay [2], 42.1 nM; in [3], 1.05 µM; in [4], 91.9 nM; in [5] it was 0.0665 µM; in assay [6], 1.13 µM. Besides, the GI50 in assay [7] was 0.479 µM; in assay [8], 335 nM; in assay [9] it was 0.334 µM; in assay [10], 0.13 µM. For the same molecule, the TGI was 1.9 µM in assay [1]; 1.06 µM in [2]; 2.56 µM in [3]; 1.31 µM in assay [4]; 0.352 µM in assay [5]; 2.56 µM in [6]. The TGI came out at 1.94 µM in assay [7], 1.63 µM in assay [8], 1.51 µM in [9] and 1.24 µM in assay [10].
As to `COc1cccc(-c2cc(-c3ccc(Nc4nc(Nc5ccc(Cl)cc5)nc(Nc5ccc(Cl)cc5)n4)cc3)nc(N)c2C#N)c1`, the GI50 in assay [1] was 4.7 µM; in assay [2] it was 1910 nM; in [3], 2.11 µM; in [4] it was 1600 nM; in assay [5], 21.1 µM; in [6], 1.69 µM. Besides, the GI50 in [7] is 1.74 µM; in assay [8], 1730 nM; in assay [9], 3.3 µM; in assay [10], 10.3 µM. The TGI in assay [1] is 29.4 µM; in assay [2] it was 11.5 µM; in assay [3], 5.54 µM; in [4], 3.53 µM; in [5], 44.6 µM; in assay [6] it was 3.45 µM. The TGI was 5.43 µM in assay [7], 3.53 µM in assay [8], 15.1 µM in [9] and greater than 39.3 µM in [10].
